Test results from patent EP0275207A2, “Pharmaceutical and veterinary compositions” (priority 1987, dated 1988).

How the values were obtained:
Trichophyton rubrum = test: 7 day growth test in phosphate buffered saline solution (ED 50 and ED 90); type: cell-based; settings: for EDso and ED90 results against T. Rubrum: compared to those obtained using bis THP phosphite and THP sulphate; for Mg. growth (% of control) / Mg. growth dry weight / ED50 / ED90: 7 day test; for ED50 / ED90: ppm (Active Compound)
Source text: The activity of 50% aqueous bis THP phosphite, 50% aqueous mono THP phosphite and 80% aqueous THP sulphate against Trichophyton rubrum were compared in a 7 day test in phosphate buffered saline solution to determine ED 50 and ED 90 values.

Naegleria = test: In vitro kill of protozoon; type: cell-based
bacteria = test: Time-kill test (surviving organisms by plate count) in phosphate buffered saline, bacterial strains; type: cell-based; settings: within 2 to 6 hours of exposure
Description: The following bacterial strains were used in the tests: • Streptococcus pyogenes NCTC 8198 • Streptococcus faecalis ATCC 19433 • Sarcina lutea ATCC 9341 • Proteus mirabilis NCTC 8559 • Proteus vulgaris NCTB 4175 • Klebsiella pneumoniae NCTC 10341 • Salmonella typhimurium NCTB 10258 • Salmonella enteritidis NCTC 6676 • Shigella boydii NCTC 9328 • Bacillus subtilus ATCC 6633 • Bacillus cereus ATCC 11778
Inocula for the bacterial strains were prepared from cultures on Tryptone soy agar (TSA, Oxoid CM 131) incubated at 37° C for 24 hours. […]
(§1) The test solutions as described in (5) above were prepared in 50 ml volumes and the test solutions plus a 100 ml volume of PBS (as control) were inoculated with appropriate volumes (0.5 to 1 ml) of the inocula prepared as described in (2) above, shaken to evenly distribute the inoculum and held at room temperature. Immediatedly after inoculation (time 0) and then at pre-determined times 0.1 ml aliquots were removed from the test and control solutions for counting. […]
(§2) Developing colonies were then counted and by reference to the appropriate dilution ratios the numbers of surviving organisms at each compound concentration/time point were calculated.

fungi = test: Time-kill test (surviving organisms by plate count) in phosphate buffered saline, yeast and fungal strains; type: cell-based; settings: after 24 hours
Description: The following yeast and fungal strains were used in the tests: • Candida albicans ATCC 10231 • Candida tropicalis NCPF 3111 • Absidia corymbifera NCPF 2001 • Sporotrichum schenkii NCPF 3182 • Trichophyton rubrum NCPF 197 • Trichophyton mentagrophytes NCPF 351 • Microsporum Canis NCPF 351 • Penicillium funicolosum CMI 114933 • Aureobasidium pullulans CMI 45533
Inocula for the two yeast (Candida) strains wre prepared from cultures on Sabouraud dextrose agar (SDA Oxide CM 141) incubated at 37°C for 48 hours. Surface growth of the organisms was suspended in sterile physiological saline and standardised by plate counts to contain approximatedly 10^6 cfu/ml. […]
as §1, §2

protozoal infection = test: Treatment of fish pond with an infected Koi Carp; type: in vivo; settings: 100 ppm dosed to the pond, concentration of 27 ppm in the pond water
Description: 100 ppm of 75% aqueous THP sulphate was dosed to the pond via the oxygenating venturi to provide a concentration of 27 ppm in the pond water.

## OC[P+](CO)(CO)CO.[Cl-] [THP chloride, tetrakis (hydroxymethyl) phosphonium chloride]
Trichophyton rubrum
  EDso and ED90 results against T. Rubrum: substantially similar

## THP acetate
Trichophyton rubrum
  EDso and ED90 results against T. Rubrum: substantially similar

## THP tartrate
Trichophyton rubrum
  EDso and ED90 results against T. Rubrum: substantially similar

## THP lactate
Trichophyton rubrum
  EDso and ED90 results against T. Rubrum: substantially similar

## bis THP phosphate
Trichophyton rubrum
  EDso and ED90 results against T. Rubrum: substantially similar

## tetrakis(hydroxymethyl) phosphonium sulphate [THPS]
Naegleria
  concentration giving a complete in vitro kill of Naegleria: 15 ppm

## OC[P+](CO)(CO)CO [THP bromide]
Trichophyton rubrum
  EDso and ED90 results against T. Rubrum: substantially similar

## tetrakis(hydroxymethyl) phosphonium sulphate
bacteria
  concentration giving a high degree of lethal activity to bacteria: at least 20 ppm
fungi
  concentration giving a high degree of lethal activity to the fungi: 100-150 ppm
Protozoal infection
  infection of the other fish: none of the other fish became infected
  outcome for the infected fish: recovered fully
  tolerability in fish (feeding, distress): no signs of distress

## THP citrate
Trichophyton rubrum
  EDso and ED90 results against T. Rubrum: substantially similar

## THP borate
Trichophyton rubrum
  EDso and ED90 results against T. Rubrum: substantially similar

## bis THP phosphite [50% bis THP phosphite]
Trichophyton rubrum; 5 ppm (Active Compound)
  Mg. growth (% of control): (82) % of control
  Mg. growth dry weight: 8.7 Mg.
Trichophyton rubrum; 15 ppm (Active Compound)
  Mg. growth (% of control): (20) % of control
  Mg. growth dry weight: 2.1 Mg.
Trichophyton rubrum; 50 ppm (Active Compound)
  Mg. growth (% of control): (0) % of control
  Mg. growth dry weight: 0 Mg.
Trichophyton rubrum; 150 ppm (Active Compound)
  Mg. growth (% of control): (0) % of control
  Mg. growth dry weight: 0 Mg.
Trichophyton rubrum; 500 ppm (Active Compound)
  Mg. growth (% of control): (0) % of control
  Mg. growth dry weight: 0 Mg.
Trichophyton rubrum
  ED50: 10 ppm
  ED90: 25 ppm

## tetrakis(hydroxymethyl) phosphonium sulphate [80% THP Sulphate]
Trichophyton rubrum; 8 ppm (Active Compound)
  Mg. growth (% of control): (92) % of control
  Mg. growth dry weight: 7.3 Mg.
Trichophyton rubrum; 24 ppm (Active Compound)
  Mg. growth (% of control): (0) % of control
  Mg. growth dry weight: 0 Mg.
Trichophyton rubrum; 80 ppm (Active Compound)
  Mg. growth (% of control): (0) % of control
  Mg. growth dry weight: 0 Mg.
Trichophyton rubrum; 240 ppm (Active Compound)
  Mg. growth (% of control): (0) % of control
  Mg. growth dry weight: 0 Mg.
Trichophyton rubrum; 800 ppm (Active Compound)
  Mg. growth (% of control): (0) % of control
  Mg. growth dry weight: 0 Mg.
Trichophyton rubrum
  ED50: 14 ppm
  ED90: 20 ppm

## mono THP phosphite [50% THP phosphite]
Trichophyton rubrum; 5 ppm (Active Compound)
  Mg. growth (% of control): (131) % of control
  Mg. growth dry weight: 9.3 Mg.
Trichophyton rubrum; 15 ppm (Active Compound)
  Mg. growth (% of control): (39) % of control
  Mg. growth dry weight: 2.8 Mg.
Trichophyton rubrum; 50 ppm (Active Compound)
  Mg. growth (% of control): (44) % of control
  Mg. growth dry weight: 3.1 Mg.
Trichophyton rubrum; 150 ppm (Active Compound)
  Mg. growth (% of control): (32) % of control
  Mg. growth dry weight: 2.3 Mg.
Trichophyton rubrum; 500 ppm (Active Compound)
  Mg. growth (% of control): (23) % of control
  Mg. growth dry weight: 1.6 Mg.
Trichophyton rubrum
  ED50: 11 ppm
  ED90: >500 ppm

## THP fluoride
Trichophyton rubrum
  EDso and ED90 results against T. Rubrum: substantially similar
